In paper PMC9862096, “Interaction of a Homologous Series of Amphiphiles with P-glycoprotein in a Membrane Environment—Contributions of Polar and Non-Polar Interactions” (Pharmaceutics, 2023):
Where two headings read alike, the source gives them in different places.

How the values were obtained:
mouse P–gp (mP–gp) = target: T1, mouse P–gp (mP–gp) (Mus musculus, UniProt P21447); assay: P–gp ATPase activity (vanadate-sensitive, end point Pi release) in native membranes; assay type: biochemical; conditions: for Emax: read-out: V1, maximum activation; for Effect on P–gp ATPase activity: native membranes, Figure 1
T1 construct: made in house; host or cells: High-Five insect cells (Invitrogen), recombinant baculovirus; total membrane vesicles
T1 sequence (P21447 whole entry): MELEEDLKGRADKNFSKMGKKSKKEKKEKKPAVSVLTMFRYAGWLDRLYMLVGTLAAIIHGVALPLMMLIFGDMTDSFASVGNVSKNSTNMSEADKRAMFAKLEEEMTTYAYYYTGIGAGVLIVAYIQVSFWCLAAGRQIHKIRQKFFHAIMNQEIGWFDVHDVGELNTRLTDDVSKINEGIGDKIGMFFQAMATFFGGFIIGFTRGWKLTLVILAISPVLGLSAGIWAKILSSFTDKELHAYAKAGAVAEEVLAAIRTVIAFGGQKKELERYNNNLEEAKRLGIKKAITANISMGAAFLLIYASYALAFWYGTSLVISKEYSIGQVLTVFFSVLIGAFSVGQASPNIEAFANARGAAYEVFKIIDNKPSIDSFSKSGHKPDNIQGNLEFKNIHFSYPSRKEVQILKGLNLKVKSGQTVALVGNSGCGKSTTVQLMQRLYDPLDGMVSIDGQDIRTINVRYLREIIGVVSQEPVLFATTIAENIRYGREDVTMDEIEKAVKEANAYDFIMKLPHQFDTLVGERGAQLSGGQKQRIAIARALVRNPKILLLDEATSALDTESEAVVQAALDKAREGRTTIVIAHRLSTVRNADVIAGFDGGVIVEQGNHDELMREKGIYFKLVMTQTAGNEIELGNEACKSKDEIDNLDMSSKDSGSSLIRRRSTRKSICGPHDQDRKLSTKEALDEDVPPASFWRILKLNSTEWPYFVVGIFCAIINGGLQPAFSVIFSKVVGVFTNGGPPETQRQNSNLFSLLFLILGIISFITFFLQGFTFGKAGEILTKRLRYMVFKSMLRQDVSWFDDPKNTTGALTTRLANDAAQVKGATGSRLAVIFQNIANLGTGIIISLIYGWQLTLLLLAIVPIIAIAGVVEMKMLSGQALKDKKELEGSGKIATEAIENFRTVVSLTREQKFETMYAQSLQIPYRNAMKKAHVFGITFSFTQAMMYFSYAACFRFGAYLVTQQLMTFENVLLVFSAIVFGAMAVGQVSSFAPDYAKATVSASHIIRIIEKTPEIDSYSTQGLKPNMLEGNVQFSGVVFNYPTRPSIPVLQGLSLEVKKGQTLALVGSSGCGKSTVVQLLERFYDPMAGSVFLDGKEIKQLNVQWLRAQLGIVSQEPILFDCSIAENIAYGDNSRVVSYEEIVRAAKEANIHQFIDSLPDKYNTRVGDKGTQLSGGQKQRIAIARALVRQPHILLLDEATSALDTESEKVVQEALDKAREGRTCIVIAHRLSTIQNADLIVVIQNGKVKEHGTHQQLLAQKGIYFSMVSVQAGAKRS
Protocol: High-Five insect cells (Invitrogen) were infected with recombinant baculovirus carrying mouse P–gp (mP–gp) gene (Abcb1a). Membrane vesicles were prepared by hypotonic lysis of the insect cells, followed by ultracentrifugation to collect the membrane vesicles, as described in detail in reference. The native membranes obtained were suspended in storage buffer (45 mM Tris-HCl pH 7.5, 45 mM D-mannitol, 1.8 mM EGTA, 0.45% v/v aprotinin, 1.8 mM DTT, 0.9 mM AEBSF, and 10% v/v glycerol), aliquoted, and stored at −80 °C or in liquid nitrogen until use. The concentration of protein in the native membranes was quantified by the Sherman and Weismann method using Amido Black B dye.
The ATPase activity of P–gp in the High-Five insect cell membranes was measured by the end point Pi release assays, as described earlier with minor modifications. Native membranes were diluted in ATPase assay buffer (final concentrations: 41.2 mM Tris-MES pH = 6.8, 50 mM KCl, 5 mM NaN3, 2 mM EGTA, 1.03 mM Ouabain, 2 mM DTT, and 10 mM MgCl2), and the modulators were added from stocks in DMSO (final DMSO 1% v/v). The final concentration of protein was quantified, being ca. 0.1 mg/mL. Four samples were prepared at each modulator concentration, containing ATP at 5 mM, two of which also contained vanadate at 0.3 mM. P–gp specific activity was measured as vanadate-sensitive ATPase activity. The basal rate of ATP hydrolysis was 67 ± 4 nmol Pi mgP^−1 min^−1, with 37 ± 4 nmol Pi mgP^−1 min^−1 being sensitive to vanadate. The results obtained for the effect of the modulators on the ATPase activity in the presence and absence of vanadate are shown in the Supplementary Information (Figure S1).
The results were then analyzed with the formalism derived in this manuscript considering the distribution of the modulator in the distinct environments (aqueous phase, lipid bilayer and P-gp) and several equal and independent binding sites in P-gp’s binding pocket, Equations (3)–(9). The best fit was obtained with nonlinear least-square analysis using Microsoft Excel.
For the correct analysis of the results, the distribution of the amphiphiles in the distinct environments (aqueous media, lipid bilayer, and P–gp) must be considered. In addition, excess ligand should not be assumed. When considering that P–gp has several binding sites, the kinetic scheme that describes P–gp saturation with ligand is given by Equation (5). For details, see, e.g., references. (5) LW↔KPW→LbLLb LLb=KPW→LbLW VLb/VWLW+P↔β1PL1 PL1=β1PLWi LW+P↔βiPLi PLi=βiPLW^i n LW+P↔βnPLn PLn=βnPLW^n
The overall ATPase activity at each ligand concentration is calculated from the concentration of each protein species PLi and the corresponding ATPase activity Vi , (9) V=V0+∑i=1nPLi Vi
This formalism was used to describe the effect of the NBD amphiphiles on P–gp’s ATPase activity, considering a distinct ATPase activity for P–gp with a different number of amphiphile molecules in the binding pocket.

[1] = cited from earlier work
[2] = Equation (9), local concentrations, n = 1 binding sites, read-out: Kd, microscopic dissociation constant
[3] = Equation (9), local concentrations, n = 2 binding sites, read-out: Kd, microscopic dissociation constant
[4] = Equation (9), local concentrations, n = 3 binding sites, read-out: Kd, microscopic dissociation constant
[5] = Equation (9), local concentrations, n = 4 binding sites, read-out: Kd, microscopic dissociation constant
[6] = Equation (9), local concentrations, n = 5 binding sites, read-out: Kd, microscopic dissociation constant
[7] = Equation (9), n = 3, read-out: β1, macroscopic binding constant of the first ligand (converted)
[8] = Equation (9), n = 4, read-out: β1, macroscopic binding constant of the first ligand (converted)
[9] = Equation (9), n = 5, read-out: β1, macroscopic binding constant of the first ligand (converted)
[10] = Equation (S1), total modulator concentration, no constraint between K1 and K2, [75% confidence interval], read-out: K1, dissociation constant for P–gp activation
[11] = Equation (S1), total modulator concentration, no constraint between K1 and K2, [75% confidence interval], read-out: K2, dissociation constant for P–gp inhibition
[12] = Equation (S1), constraint K1≤K2 for NBD–C8
[13] = Equation (S1), no constraint between K1 and K2, [75% confidence interval], listed as NBD-C8
[14] = Equation (S1), no constraint between K1 and K2, [75% confidence interval]
[15] = Equation (S1), only activation for NBD–C4, constraint K1≤K2 for NBD–C8 and NBD–LysoMPE, [75% confidence interval]

Structure (SMILES) | Kd (mouse P–gp (mP–gp); [2]) | Kd (mouse P–gp (mP–gp); [3]) | Kd (mouse P–gp (mP–gp); [4]) | Kd (mouse P–gp (mP–gp); [5]) | Kd (mouse P–gp (mP–gp); [6]) | V1, ATPase activity of P–gp with 1 amphiphile bound (mouse P–gp (mP–gp); Equation (9), n = 1) | V1, ATPase activity of P–gp with 1 amphiphile bound (mouse P–gp (mP–gp); Equation (9), n = 2) | V2, ATPase activity of P–gp with 2 amphiphiles bound (mouse P–gp (mP–gp); Equation (9), n = 2) | V1, ATPase activity of P–gp with 1 amphiphile bound (mouse P–gp (mP–gp); Equation (9), n = 3) | V2, ATPase activity of P–gp with 2 amphiphiles bound (mouse P–gp (mP–gp); Equation (9), n = 3) | V3, ATPase activity of P–gp with 3 amphiphiles bound (mouse P–gp (mP–gp); Equation (9), n = 3) | Kd (mouse P–gp (mP–gp); [7]) | V1, ATPase activity of P–gp with 1 amphiphile bound (mouse P–gp (mP–gp); Equation (9), n = 4) | V2, ATPase activity of P–gp with 2 amphiphiles bound (mouse P–gp (mP–gp); Equation (9), n = 4) | V3, ATPase activity of P–gp with 3 amphiphiles bound (mouse P–gp (mP–gp); Equation (9), n = 4) | V4, ATPase activity of P–gp with 4 amphiphiles bound (mouse P–gp (mP–gp); Equation (9), n = 4) | Kd (mouse P–gp (mP–gp); [8]) | V1, ATPase activity of P–gp with 1 amphiphile bound (mouse P–gp (mP–gp); Equation (9), n = 5) | V2, ATPase activity of P–gp with 2 amphiphiles bound (mouse P–gp (mP–gp); Equation (9), n = 5) | V3, ATPase activity of P–gp with 3 amphiphiles bound (mouse P–gp (mP–gp); Equation (9), n = 5) | further results
CCCCCCCCNc1ccc([N+](=O)[O-])c2nonc12 [NBD–C8] | 3 µM | 11 µM | 4 µM | 4 µM | 6 µM | 286% | 388% | 0% | 112% | 403% | 65% | 1.28 µM | 113% | 260% | 317% | 62% | 1 µM | 122% | 275% | 253% | Kd (mouse P–gp (mP–gp); Equation (9), n = 2, read-out: β1, macroscopic binding constant of the first ligand (converted)): 5.26 µM; V4, ATPase activity of P–gp with 4 amphiphiles bound (mouse P–gp (mP–gp); Equation (9), n = 5): 253%; V5, ATPase activity of P–gp with 5 amphiphiles bound (mouse P–gp (mP–gp); Equation (9), n = 5): 0%; Kd (mouse P–gp (mP–gp); [9]): 1.16 µM; Kd (mouse P–gp (mP–gp); Equation (S1), total modulator concentration, constraint K1≤K2 for NBD–C8 and NBD–LysoMPE, [75% confidence interval], read-out: K2, dissociation constant for P–gp inhibition): 29 µM; Kd (mouse P–gp (mP–gp); [10]): 17 µM; Kd (mouse P–gp (mP–gp); [11]): 29 µM; V2, residual activity at infinite modulator concentration (mouse P–gp (mP–gp); [12]): 0%; V1, maximum activation (mouse P–gp (mP–gp); [13]): 494 [380, 3000] %; V2, residual activity at infinite modulator concentration (mouse P–gp (mP–gp); [13]): 0 [0, 103] %; V2, residual activity at infinite modulator concentration (mouse P–gp (mP–gp); Equation (S1), no constraint between K1 and K2, [75% confidence interval], listed as NBD‐C8): 0%; Emax (mouse P–gp (mP–gp); [14]): 497%; V1, maximum activation (mouse P–gp (mP–gp); [15]): 494 % of the basal ATPase activity; V1, maximum activation (mouse P–gp (mP–gp); Equation (S1), only activation for NBD–C4, constraint K1≤K2 for NBD–C8 and NBD–LysoMPE, [75% confidence interval], listed as NBD-C8): 494 [380, 598] % of the basal ATPase activity; Emax (mouse P–gp (mP–gp); [15]): 497%; Effect on P–gp ATPase activity (mouse P–gp (mP–gp)): both activation and inhibition; LogKP, association with POPC bilayers [1]: 4.67
CCCCCCCCCCCCCC(=O)OCC(O)COP(=O)(O)OCCNc1ccc([N+](=O)[O-])c2nonc12 (stereo not drawn) [NBD–LysoMPE] | 20 µM | 6 µM | 3 µM | 3 µM | 3 µM | 0% | 122% | 0% | 99% | 146% | 0% | 1.09 µM | 100% | 100% | 129% | 0% | 0.714 µM | 100% | 100% | 116% | V4, ATPase activity of P–gp with 4 amphiphiles bound (mouse P–gp (mP–gp); Equation (9), n = 5): 97%; V5, ATPase activity of P–gp with 5 amphiphiles bound (mouse P–gp (mP–gp); Equation (9), n = 5): 0%; Kd (mouse P–gp (mP–gp); [9]): 0.588 µM; Kd (mouse P–gp (mP–gp); [10]): > 5 µM; Kd (mouse P–gp (mP–gp); [11]): ≤ 15 µM; V2, residual activity at infinite modulator concentration (mouse P–gp (mP–gp); [12]): 0%; V1, maximal ATPase activation (mouse P–gp (mP–gp); Equation (S1), in any case (with or without constraints on K1, K2)): < 126%; V2, residual activity at infinite modulator concentration (mouse P–gp (mP–gp); [14]): 0%; Emax (mouse P–gp (mP–gp); [14]): 102%; Emax (mouse P–gp (mP–gp); [15]): 106%; Effect on P–gp ATPase activity (mouse P–gp (mP–gp)): mostly inhibition; LogKP, partition coefficient for POPC bilayers [1]: 4.2
